{"source": "patent US20250325645A1", "about": "“BOVINE VIRAL DIARRHEA VIRUS IMMUNOGENIC COMPOSITIONS AND METHODS OF USE THEREOF” (KANSAS STATE UNIVERSITY RESEARCH FOUNDATION, priority 2021, published 2025)", "data": [{"tested_on": "CD8+ T cells from BVDV-immunized steers", "assay": "MHC I blocking ELISPOT assay", "conditions": "steers 2539 and 2593; 2.5 μg/ml peptide; mAbs H58A and PT85A at 1.0 μg/ml vs IgG2a isotype control; p<0.05", "description": "Co-cultures of CD8+ T cells and autologous CD14+ monocytes from one TGAC-immunized steer (2539) and one A125-immunized steer (2593), were incubated with 2.5 μg/ml of peptide in the presence of either the two anti-bovine MHC I mAbs or IgG2a isotype control. The IFN-γ+CD8+ T cell responses in the presence or absence of anti-bovine MHC I mAbs were reported as SFC per million CD8+ T cells described as above.\nThe results from MHC I blocking ELISPOT assay were analyzed by Wilcoxon test in GraphPad Prism 7 (Version 7.04, GraphPad Software, Inc. La Jolla, CA). The significance of the difference in peptide-specific IFN-γ+CD8+ T cell responses in the absence or presence of anti-bovine MHC I mAbs was determined by a non-parametric test and the level of significance was set at p<0.05.", "values": [{"sequence": "YFEPRDNYF [Peptide 100]", "IFN-γ+CD8+ T cell recall responses in the presence of anti-bovine MHC I mAbs": "significantly reduced"}, {"sequence": "GPVYHRAPL [Peptide 61]", "IFN-γ+CD8+ T cell recall responses in the presence of anti-bovine MHC I mAbs": "significantly reduced"}, {"sequence": "GSVWNLGKY [Peptide 56]", "IFN-γ+CD8+ T cell recall responses in the presence of anti-bovine MHC I mAbs": "significantly reduced"}, {"sequence": "YYDDNLNEI [Peptide 64]", "IFN-γ+CD8+ T cell recall responses in the presence of anti-bovine MHC I mAbs": "significantly reduced"}, {"sequence": "FGAYAASPY [Peptide 86]", "IFN-γ+CD8+ T cell recall responses in the presence of anti-bovine MHC I mAbs": "significantly reduced"}, {"sequence": "SEQKRTLLM [Peptide 37]", "IFN-γ+CD8+ T cell recall responses in the presence of anti-bovine MHC I mAbs": "significantly reduced"}]}]}
